Source: PubChem BioAssay AID288 (DTP/NCI, 2004)
Records with an inconclusive call do not appear.

Test system: BDF1 mice, M5076 sarcoma s.c., survival/tumor T/C
Experiment: NCI In Vivo Anticancer Drug Screen. Data for tumor model Sarcoma M5076 (subcutaneous) in B6D2F1 (BDF1) mice
Description: The antitumor activity of compounds was measured in mice bearing transplantable tumors. Survival or tumor size were measured and the results are expressed as the measurement made in the treated group (T) divided by the measurement made in the vehicle treated control group (C). The tumor model used in this assay is Sarcoma M5076 (subcutaneous) in B6D2F1 (BDF1) mice

[1] = endpoint: median survival time, dose: 50.0 mg/kg/injection, schedule: Q01DX009 (ip), vehicle: saline with Tween-80, higher = longer survival
[2] = endpoint: median survival time, dose: 100.0 mg/kg/injection, schedule: Q01DX009 (ip), vehicle: saline with Tween-80, higher = longer survival
[3] = endpoint: median survival time, dose: 200.0 mg/kg/injection, schedule: Q01DX009 (ip), vehicle: saline with Tween-80, higher = longer survival
[4] = endpoint: median tumor weight (est.), dose: 50.0 mg/kg/injection, schedule: Q01DX009 (ip), vehicle: saline with Tween-80, higher = larger tumour
[5] = endpoint: median tumor weight (est.), dose: 100.0 mg/kg/injection, schedule: Q01DX009 (ip), vehicle: saline with Tween-80, higher = larger tumour
[6] = endpoint: median tumor weight (est.), dose: 200.0 mg/kg/injection, schedule: Q01DX009 (ip), vehicle: saline with Tween-80, higher = larger tumour

COc1cc(-c2ccc(NC(=O)NC3CC3)c(OC)c2)ccc1NC(=O)NC1CC1
T/C [1]: 101 % of control
T/C [2]: 93 % of control
T/C [3]: 88 % of control
T/C [4]: 101 % of control
T/C [5]: 84 % of control

COc1cc(COC(=O)Nc2ccccc2F)cc(OC)c1OC
T/C [1]: 100 % of control
T/C [2]: 103 % of control
T/C [3]: 94 % of control
T/C [4]: 99 % of control
T/C [5]: 111 % of control
T/C [6]: 98 % of control

Cc1ccc(S(=O)(=O)O)cc1.Cc1ccc(S(=O)(=O)O)cc1.[NH-]C1CCCCC1[NH-].[Pt+2]
T/C (endpoint: median survival time, dose: 4.0 mg/kg/injection, schedule: Q02DX032 (ip), vehicle: dextrose, higher = longer survival): 94 % of control

COc1cc2c[n+](C)c3c4cc5c(cc4ccc3c2cc1OC)OCO5
T/C (endpoint: mean tumor weight, dose: 10.0 mg/kg/injection, schedule: Q02DX011 (ip), vehicle: Klucel (hydroxypropylcellulose) (HPC), higher = larger tumour): 73 % of control
T/C (endpoint: median tumor weight (est.), dose: 10.0 mg/kg/injection, schedule: Q02DX011 (ip), vehicle: Klucel (hydroxypropylcellulose) (HPC), higher = larger tumour): 91 % of control
T/C (endpoint: median tumor weight (est.), dose: 20.0 mg/kg/injection, schedule: Q02DX011 (ip), vehicle: Klucel (hydroxypropylcellulose) (HPC), higher = larger tumour): 56 % of control

CCC(NN)C(=O)OCc1ccccc1 (stereo not given)
T/C [1]: 107 % of control
T/C [2]: 104 % of control
T/C [3]: 104 % of control
T/C [4]: 75 % of control
T/C [5]: 103 % of control
T/C [6]: 109 % of control

Cn1c2c(c(=O)n(C)c1=O)CS(=O)c1ccccc1N2 (stereo not given)
T/C [1]: 103 % of control
T/C [2]: 106 % of control
T/C [3]: 109 % of control
T/C [4]: 65 % of control
T/C [5]: 61 % of control
T/C [6]: 83 % of control

COc1cccc2c1C(=O)c1c(O)c3c(c(O)c1C2=O)C[C@@](O)(C(=O)CO)C[C@@H]3OC1CC(N)C(O)C(C)O1 (stereo not given in full)
T/C (endpoint: mean tumor weight, dose: 1.0 mg/kg/injection, schedule: Q02DX011 (ip), vehicle: saline, higher = larger tumour): 81 % of control
T/C (endpoint: mean tumor weight, dose: 2.0 mg/kg/injection, schedule: Q02DX011 (ip), vehicle: saline, higher = larger tumour): 39 % of control
T/C (endpoint: median survival time, dose: 0.25 mg/kg/injection, schedule: Q02DX009 (iv), vehicle: saline, higher = longer survival): 97 % of control
T/C (endpoint: median survival time, dose: 0.5 mg/kg/injection, schedule: Q02DX009 (iv), vehicle: saline, higher = longer survival): 94 % of control
T/C (endpoint: median survival time, dose: 0.5 mg/kg/injection, schedule: Q04DX009 (ip), vehicle: saline, higher = longer survival): 114 % of control
T/C (endpoint: median survival time, dose: 1.0 mg/kg/injection, schedule: Q02DX009 (iv), vehicle: saline, higher = longer survival): 100 % of control
T/C (endpoint: median survival time, dose: 1.0 mg/kg/injection, schedule: Q02DX011 (ip), vehicle: water, higher = longer survival): 100 % of control
T/C (endpoint: median survival time, dose: 1.0 mg/kg/injection, schedule: Q04DX009 (ip), vehicle: saline, higher = longer survival): 111 % of control
T/C (endpoint: median survival time, dose: 1.3 mg/kg/injection, schedule: Q04DX004 (iv), vehicle: saline, higher = longer survival): 100 % of control
T/C (endpoint: median survival time, dose: 2.0 mg/kg/injection, schedule: Q02DX009 (iv), vehicle: saline, higher = longer survival): 97 % of control
T/C (endpoint: median survival time, dose: 2.0 mg/kg/injection, schedule: Q02DX011 (ip), vehicle: water, higher = longer survival): 94 % of control
T/C (endpoint: median survival time, dose: 2.0 mg/kg/injection, schedule: Q04DX009 (ip), vehicle: saline, higher = longer survival): 111 % of control
T/C (endpoint: median survival time, dose: 2.16 mg/kg/injection, schedule: Q04DX004 (ip), vehicle: saline, higher = longer survival): 90 % of control
T/C (endpoint: median survival time, dose: 2.16 mg/kg/injection, schedule: Q04DX004 (iv), vehicle: saline, higher = longer survival): 112 % of control
T/C (endpoint: median survival time, dose: 3.0 mg/kg/injection, schedule: Q02DX011 (ip), vehicle: water, higher = longer survival): 96 % of control
T/C (endpoint: median survival time, dose: 3.0 mg/kg/injection, schedule: Q04DX003 (iv), vehicle: saline, higher = longer survival): 108 % of control
T/C (endpoint: median survival time, dose: 3.6 mg/kg/injection, schedule: Q04DX004 (ip), vehicle: saline, higher = longer survival): 103 % of control
T/C (endpoint: median survival time, dose: 3.6 mg/kg/injection, schedule: Q04DX004 (iv), vehicle: saline, higher = longer survival): 93 % of control
T/C (endpoint: median survival time, dose: 4.0 mg/kg/injection, schedule: Q02DX011 (ip), vehicle: water, higher = longer survival): 38 % of control
T/C (endpoint: median survival time, dose: 4.0 mg/kg/injection, schedule: Q04DX009 (ip), vehicle: saline, higher = longer survival): 108 % of control
T/C (endpoint: median survival time, dose: 4.5 mg/kg/injection, schedule: Q04DX003 (iv), vehicle: saline, higher = longer survival): 124 % of control
T/C (endpoint: median tumor weight (est.), dose: 1.0 mg/kg/injection, schedule: Q02DX011 (ip), vehicle: saline, higher = larger tumour): 76 % of control
T/C (endpoint: median tumor weight (est.), dose: 2.0 mg/kg/injection, schedule: Q02DX011 (ip), vehicle: saline, higher = larger tumour): 26 % of control
